According to PubChem BioAssay (NCI):
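Results reflect a 48-hour exposure of cells in 96-well plates to compound at five concentrations. At the TGI there is no net growth.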

Legend:
Assay in all cases: NCI anticancer screen, dose series, 48 h
[1] = test system: SF-268 CNS
[2] = test system: LOX IMVI melanoma
[3] = test system: EKVX NSCLC
[4] = test system: SF-539 CNS
[5] = test system: K-562 leukemia
[6] = test system: HOP-62 NSCLC
[7] = test system: SNB-19 CNS
[8] = test system: RPMI-8226 leukemia
[9] = test system: TK-10 renal
[10] = test system: UACC-62 melanoma
[11] = test system: NCI-H23 lung
[12] = test system: M19-MEL melanoma
[13] = test system: DLD-1 colon
[14] = test system: HL-60(TB) leukemia
[15] = test system: CAKI-1 renal
[16] = test system: M14 melanoma
[17] = test system: U251 CNS
[18] = test system: DMS 273 small cell lung
[19] = test system: NCI-H226 lung
[20] = test system: CCRF-CEM leukemia
[21] = test system: A549 NSCLC
[22] = test system: NCI-H460 lung
[23] = test system: SK-MEL-2 melanoma
[24] = test system: OVCAR-5 ovarian
[25] = test system: OVCAR-4 ovarian
[26] = test system: OVCAR-3 ovarian
[27] = test system: ACHN renal
[28] = test system: SK-MEL-28 melanoma
[29] = test system: NCI-H522 lung
[30] = test system: HT29 colon
[31] = test system: MOLT-4 leukemia
[32] = test system: HCT-116 colon
[33] = test system: XF 498 CNS
[34] = test system: HCT-15 colon
[35] = test system: SNB-75 CNS
[36] = test system: IGROV1 ovarian
[37] = test system: OVCAR-8 ovarian
[38] = test system: MALME-3M melanoma
[39] = test system: HCC-2998 colon
[40] = test system: SF-295 CNS
[41] = test system: SNB-78 CNS
[42] = test system: SN12C renal
[43] = test system: SK-MEL-5 melanoma
[44] = test system: A498 renal
[45] = test system: LXFL 529 NSCLC
[46] = test system: RXF 393 renal
[47] = test system: SW-620 colon
[48] = test system: UACC-257 melanoma
[49] = test system: KM20L2 colon
[50] = test system: KM12 colon
[51] = test system: DMS 114 small cell lung
[52] = test system: UO-31 renal
[53] = test system: 786-0 renal
[54] = test system: COLO 205 colon

Measured: TGI

CCCCCCC(/C=N/O)C(C)(O)CCC (centres undefined)
> 100 µM: [1] | [2] | [3] | [4] | [5] | [6] | [7] | [8] | [9] | [10] | [11] | [12] | [13] | [14] | [15] | [16] | [17] | [18] | [19] | [20] | [21] | [22] | [23] | [24] | [25] | [26] | [27] | [28] | [29] | [30] | [31] | [32] | [33] | [34] | [35] | [36] | [37] | [38] | [39] | [40] | [41] | [42] | [43] | [44] | [45] | [46] | [47] | [48] | [49] | [50] | [51] | [52] | [53] | [54]
